{
  "source": "paper PMC4623880",
  "about": "(Digestive diseases and sciences, 2015)",
  "key": {"[1]": {"settings": "cited from earlier work"}, "[2]": {"assay_type": "in vivo, human", "settings": "for Cmax: N-desmethyl sildenafil, after 2.5 mg IV bolus sildenafil; for observed maximum concentration of plasma sildenafil: 2.5 mg IV bolus"}, "[3]": {"assay": "Tolerability and hemodynamics", "assay_type": "in vivo, human", "settings": "for tolerability / safety of IV sildenafil: both subjects, single 2.5 mg IV bolus injection"}, "[4]": {"settings": "healthy volunteers; cited from earlier work"}, "[5]": {"settings": "subject 1, 16 min after 2.5 mg IV bolus sildenafil"}, "[6]": {"settings": "subject 1, 30 min after 2.5 mg IV bolus sildenafil"}, "[7]": {"settings": "subject 1, 60 min after 2.5 mg IV bolus sildenafil"}, "[8]": {"settings": "subject 1, 120 min after 2.5 mg IV bolus sildenafil"}, "[9]": {"settings": "subject 1, 178 min after 2.5 mg IV bolus sildenafil"}, "[10]": {"settings": "subject 1, 242 min after 2.5 mg IV bolus sildenafil"}, "[11]": {"settings": "subject 1, 360 min after 2.5 mg IV bolus sildenafil"}, "[12]": {"settings": "subject 1, 480 min after 2.5 mg IV bolus sildenafil"}, "[13]": {"settings": "subject 2, 15 min after 2.5 mg IV bolus sildenafil"}, "[14]": {"settings": "subject 2, 30 min after 2.5 mg IV bolus sildenafil"}, "[15]": {"settings": "subject 2, 60 min after 2.5 mg IV bolus sildenafil"}, "[16]": {"settings": "subject 2, 122 min after 2.5 mg IV bolus sildenafil"}, "[17]": {"settings": "subject 2, 180 min after 2.5 mg IV bolus sildenafil"}, "[18]": {"settings": "subject 2, 240 min after 2.5 mg IV bolus sildenafil"}, "[19]": {"settings": "subject 2, 360 min after 2.5 mg IV bolus sildenafil"}, "[20]": {"settings": "subject 2, 480 min after 2.5 mg IV bolus sildenafil"}},
  "note": "“Also recorded” adds a separate entry of the source. Where two headings read alike, the source gives them in different places.",
  "data": [
    {"smiles": "CCCc1nn(C)c2c(=O)[nH]c(-c3cc(S(=O)(=O)N4CCNCC4)ccc3OCC)nc12", "note": "[N-desmethyl Sildenafil, N-desmethyl sildenafil]", "values": [
      {"measurement": "N-desmethyl sildenafil AUC increased compared to healthy subjects", "setting": "[1]; CTP class A and B cirrhosis", "result": 154, "unit": "%"},
      {"measurement": "mean Cmax of N-desmethyl sildenafil increased compared to normal controls", "setting": "[1]; CTP class A and B cirrhosis", "result": 87, "unit": "%"},
      {"measurement": "N-desmethyl sildenafil AUC/sildenafil AUC", "setting": "[1]; healthy subjects", "result": 52, "unit": "%"},
      {"measurement": "N-desmethyl sildenafil AUC/sildenafil AUC", "setting": "[1]; subjects with CTP Class A and B cirrhosis", "result": 71, "unit": "%"},
      {"measurement": "Cmax", "setting": "[2]; subject 1", "result": 2.6, "unit": "ng/mL"},
      {"measurement": "Cmax", "setting": "[2]; subject 2", "result": 1.1, "unit": "ng/mL"},
      {"measurement": "N-desmethyl Sildenafil Concentration", "setting": "[2]; plasma, subject 1, 16 min after 2.5 mg IV bolus sildenafil", "result": 1.21, "unit": "ng/mL"},
      {"measurement": "N-desmethyl Sildenafil Concentration", "setting": "[2]; plasma, subject 1, 30 min after 2.5 mg IV bolus sildenafil", "result": "BLQ"},
      {"measurement": "N-desmethyl Sildenafil Concentration", "setting": "[2]; plasma, subject 1, 60 min after 2.5 mg IV bolus sildenafil", "result": 2.26, "unit": "ng/mL"},
      {"measurement": "N-desmethyl Sildenafil Concentration", "setting": "[2]; plasma, subject 1, 88 min after 2.5 mg IV bolus sildenafil", "result": 2.10, "unit": "ng/mL"},
      {"measurement": "N-desmethyl Sildenafil Concentration", "setting": "[2]; plasma, subject 1, 120 min after 2.5 mg IV bolus sildenafil", "result": 2.49, "unit": "ng/mL"},
      {"measurement": "N-desmethyl Sildenafil Concentration", "setting": "[2]; plasma, subject 1, 178 min after 2.5 mg IV bolus sildenafil", "result": 2.64, "unit": "ng/mL"},
      {"measurement": "N-desmethyl Sildenafil Concentration", "setting": "[2]; plasma, subject 1, 242 min after 2.5 mg IV bolus sildenafil", "result": 2.19, "unit": "ng/mL"},
      {"measurement": "N-desmethyl Sildenafil Concentration", "setting": "[2]; plasma, subject 1, 360 min after 2.5 mg IV bolus sildenafil", "result": 2.00, "unit": "ng/mL"},
      {"measurement": "N-desmethyl Sildenafil Concentration", "setting": "[2]; plasma, subject 1, 480 min after 2.5 mg IV bolus sildenafil", "result": 1.53, "unit": "ng/mL"},
      {"measurement": "N-desmethyl Sildenafil Concentration", "setting": "[2]; plasma, subject 2, 15 min after 2.5 mg IV bolus sildenafil", "result": "BLQ"},
      {"measurement": "N-desmethyl Sildenafil Concentration", "setting": "[2]; plasma, subject 2, 30 min after 2.5 mg IV bolus sildenafil", "result": "BLQ"},
      {"measurement": "N-desmethyl Sildenafil Concentration", "setting": "[2]; plasma, subject 2, 60 min after 2.5 mg IV bolus sildenafil", "result": "BLQ"},
      {"measurement": "N-desmethyl Sildenafil Concentration", "setting": "[2]; plasma, subject 2, 90 min after 2.5 mg IV bolus sildenafil", "result": "BLQ"},
      {"measurement": "N-desmethyl Sildenafil Concentration", "setting": "[2]; plasma, subject 2, 122 min after 2.5 mg IV bolus sildenafil", "result": "BLQ"},
      {"measurement": "N-desmethyl Sildenafil Concentration", "setting": "[2]; plasma, subject 2, 180 min after 2.5 mg IV bolus sildenafil", "result": 1.06, "unit": "ng/mL"},
      {"measurement": "N-desmethyl Sildenafil Concentration", "setting": "[2]; plasma, subject 2, 240 min after 2.5 mg IV bolus sildenafil", "result": "BLQ"},
      {"measurement": "N-desmethyl Sildenafil Concentration", "setting": "[2]; plasma, subject 2, 360 min after 2.5 mg IV bolus sildenafil", "result": "BLQ"},
      {"measurement": "N-desmethyl Sildenafil Concentration", "setting": "[2]; plasma, subject 2, 480 min after 2.5 mg IV bolus sildenafil", "result": "BLQ"},
      {"measurement": "metabolite concentrations", "setting": "[2]; plasma, subject 2, all times except 180 minutes after sildenafil injection", "result": "unmeasurable"}
    ]},
    {"smiles": "CCCc1nn(C)c2c(=O)[nH]c(-c3cc(S(=O)(=O)N4CCN(C)CC4)ccc3OCC)nc12", "note": "[Sildenafil, sildenafil]", "values": [
      {"measurement": "tolerability / safety of IV sildenafil", "setting": "[3]", "result": "without side effects"},
      {"measurement": "tolerability / safety of IV sildenafil", "setting": "[3]; listed as sildenafil", "result": "without adverse events; also recorded: safe and tolerable; also recorded: can be safely administered"},
      {"measurement": "adverse events reported at interview", "setting": "[3]; forty-eight hours after sildenafil injection", "result": "did not report any adverse events"},
      {"measurement": "Heart Rate", "setting": "[3]; [5]", "result": 53},
      {"measurement": "Mean Arterial Pressure", "setting": "[3]; [5]", "result": 75, "unit": "mmHg"},
      {"measurement": "Heart Rate", "setting": "[3]; [6]", "result": 53},
      {"measurement": "Mean Arterial Pressure", "setting": "[3]; [6]", "result": 78, "unit": "mmHg"},
      {"measurement": "Heart Rate", "setting": "[3]; [7]", "result": 55},
      {"measurement": "Mean Arterial Pressure", "setting": "[3]; [7]", "result": 78, "unit": "mmHg"},
      {"measurement": "Heart Rate", "setting": "[3]; [8]", "result": 51},
      {"measurement": "Mean Arterial Pressure", "setting": "[3]; [8]", "result": 75, "unit": "mmHg"},
      {"measurement": "Heart Rate", "setting": "[3]; [9]", "result": 50},
      {"measurement": "Mean Arterial Pressure", "setting": "[3]; [9]", "result": 79, "unit": "mmHg"},
      {"measurement": "Heart Rate", "setting": "[3]; [10]", "result": 50},
      {"measurement": "Mean Arterial Pressure", "setting": "[3]; [10]", "result": 78, "unit": "mmHg"},
      {"measurement": "Heart Rate", "setting": "[3]; [11]", "result": 53},
      {"measurement": "Mean Arterial Pressure", "setting": "[3]; [11]", "result": 83, "unit": "mmHg"},
      {"measurement": "Heart Rate", "setting": "[3]; [12]", "result": 54},
      {"measurement": "Mean Arterial Pressure", "setting": "[3]; [12]", "result": 83, "unit": "mmHg"},
      {"measurement": "lowest MAP observed", "setting": "[3]; subject 1, at 16 and 120 minutes after sildenafil injection", "result": 75},
      {"measurement": "Heart Rate", "setting": "[3]; [13]", "result": 98},
      {"measurement": "Mean Arterial Pressure", "setting": "[3]; [13]", "result": 69, "unit": "mmHg"},
      {"measurement": "Heart Rate", "setting": "[3]; [14]", "result": 98},
      {"measurement": "Mean Arterial Pressure", "setting": "[3]; [14]", "result": 73, "unit": "mmHg"},
      {"measurement": "Heart Rate", "setting": "[3]; [15]", "result": 98},
      {"measurement": "Mean Arterial Pressure", "setting": "[3]; [15]", "result": 75, "unit": "mmHg"},
      {"measurement": "Heart Rate", "setting": "[3]; [16]", "result": 90},
      {"measurement": "Mean Arterial Pressure", "setting": "[3]; [16]", "result": 81, "unit": "mmHg"},
      {"measurement": "Heart Rate", "setting": "[3]; [17]", "result": 97},
      {"measurement": "Mean Arterial Pressure", "setting": "[3]; [17]", "result": 80, "unit": "mmHg"},
      {"measurement": "Heart Rate", "setting": "[3]; [18]", "result": 93},
      {"measurement": "Mean Arterial Pressure", "setting": "[3]; [18]", "result": 75, "unit": "mmHg"},
      {"measurement": "Heart Rate", "setting": "[3]; [19]", "result": 92},
      {"measurement": "Mean Arterial Pressure", "setting": "[3]; [19]", "result": 72, "unit": "mmHg"},
      {"measurement": "Heart Rate", "setting": "[3]; [20]", "result": 94},
      {"measurement": "Mean Arterial Pressure", "setting": "[3]; [20]", "result": 75, "unit": "mmHg"},
      {"measurement": "lowest MAP", "setting": "[3]; subject 2, at 15 minutes after sildenafil injection", "result": 69, "unit": "mmHg"},
      {"measurement": "adverse events", "setting": "[3]; up to 9 hours after sildenafil injection", "result": "No adverse events"},
      {"measurement": "dose-corrected mean Cmax", "setting": "[4]", "result": 26.6, "unit": "ng/mL"},
      {"measurement": "mean half-life", "setting": "[4]", "result": 3.9, "unit": "h"},
      {"measurement": "mean clearance of sildenafil reduced compared to normal controls", "setting": "[1]; CTP class A and B cirrhosis, single 50 mg oral dose", "result": 46, "unit": "%"},
      {"measurement": "clearance lower than mean in healthy volunteers", "setting": "[2]; second value, for CL 14.9 L/hr vs 40.8 L/hr", "result": 71, "unit": "%"},
      {"measurement": "observed maximum concentration of plasma sildenafil", "setting": "[2]; subject 1 (first value)", "result": 35, "unit": "ng/mL"},
      {"measurement": "observed maximum concentration of plasma sildenafil", "setting": "[2]; subject 2 (second value)", "result": 20.6, "unit": "ng/mL"}
    ]}
  ]
}
